Patent US20230256004A1, “COMPOSITIONS AND METHODS FOR TREATING MOOD DISORDERS AND CIRCADIAN RHYTHM SLEEP DISORDERS” (Light Aqua LLC, priority 2020, published 2023)

Columns and labels:
mammals = settings: in vivo; cited from earlier work
fish and tadpoles = settings: cited from earlier work
humans [1] = settings: cited from earlier work
rats and mice = settings: cited from earlier work
[2] = in vivo; cited from earlier work
rest/activity clock = settings: cited from earlier work
one-celled algae = settings: in vivo; cited from earlier work
[3] = test system: Major Depressive Disorder; assay: proposed treatment of Major Depressive Disorder with deuterium oxide/scopolamine solution; assay type: in vivo, human; settings: Major Depressive Disorder subjects; proposed experiment
[4] = test system: circadian rest/activity cycle; settings: cited from earlier work
humans [5] = settings: acute treatment; 1% of total body water versus 15% toxic

[2H]O[2H] [deuterium oxide]
drinking water concentration of deuterium oxide safe long term (mammals): 5%
heavy water concentration survived long-term (fish and tadpoles): 30%
concentration in human fluids found not to be toxic over short time periods (humans [1]; humans, Wallace 1995): ≤ 23%
acute replacement of total body water with no evident adverse effects (humans [1]; in vivo): 15-23%
adverse effects (humans [1]; in vivo): no adverse effects
adverse effects after one liter (humans [1]; in vivo): severe vertigo with emesis
deuterium oxide concentration considered safe long term (humans [1]; in vivo): 1%
dose at which positional ocular nystagmus was observed (humans [1]; in vivo): 25 to 50 mL
duration of nystagmus (humans [1]; in vivo): up to 140 minutes
harmful effects in babies (humans [1]; in vivo): no observed harmful effects
onset of nystagmus post ingestion (humans [1]; in vivo): about 20 minutes
onset of vertigo after dose (humans [1]; in vivo): 30 min
reactions to deuterium oxide (humans [1]; in vivo): short-term vertigo in two of the subjects
sensitivity of humans to toxic effects compared to mice (humans [1]; in vivo): roughly 5 times
threshold dosage for noticeable side-effects (humans [1]; in vivo): 70 to 140 g
total body water concentration considered toxic threshold (humans [1]; in vivo): ≥ 15%
body water replacement at which intoxication signs and symptoms occur (rats and mice; in vivo): over 15%
deuterium oxide concentration recommended as safe long term (rats and mice; in vivo): 5%
body water deuterium oxide concentration producing coma and then death (rats and mice; rats and mice): 30-35%
elimination half-life [2]: up to 10 days
metabolites [2]: no metabolites
deuterium oxide concentration at which circadian rhythm began to fluctuate (rest/activity clock; hamsters, Richter 1977): 5%
drinking-water deuterium oxide concentration at which rest/activity cycle was freed from entrainment by light/dark (rest/activity clock; hamsters, Richter 1977): 10%
slowing of circadian rhythms per 5% deuterium oxide concentration increase in total body water (rest/activity clock; hamsters, on average, linear response, no lower threshold): about 1%
deuterium oxide concentration at which circadian rhythm began to fluctuate, one hamster (rest/activity clock; one hamster, Richter 1977): 1%
deuterium oxide concentration survived long-term (one-celled algae): 100%
predicted time for treatment regimen to take effect [3]: ≤ 2 days
time for chronomutagenic effect to take effect ([4]; mice, 5% deuterium oxide, Dowse 1972): ≤ 24 h
increase in period length of the activity rest cycle ([4]; white mice, maximum 30% deuterium oxide dose administered, Suter and Rawson 1968): ≤ 6%
estimated Therapeutic Index (ratio of toxic dose to therapeutic dose) (humans [5]): about 15
